This is an account of results in patent US20250026766A1, “Thiazolopyridyl Amide Derivatives as DNA Polymerase Theta Inhibitors” (BeiGene, Ltd., priority 2022, published 2025).

Pol Theta (1-894), sequence (O75417 1-894): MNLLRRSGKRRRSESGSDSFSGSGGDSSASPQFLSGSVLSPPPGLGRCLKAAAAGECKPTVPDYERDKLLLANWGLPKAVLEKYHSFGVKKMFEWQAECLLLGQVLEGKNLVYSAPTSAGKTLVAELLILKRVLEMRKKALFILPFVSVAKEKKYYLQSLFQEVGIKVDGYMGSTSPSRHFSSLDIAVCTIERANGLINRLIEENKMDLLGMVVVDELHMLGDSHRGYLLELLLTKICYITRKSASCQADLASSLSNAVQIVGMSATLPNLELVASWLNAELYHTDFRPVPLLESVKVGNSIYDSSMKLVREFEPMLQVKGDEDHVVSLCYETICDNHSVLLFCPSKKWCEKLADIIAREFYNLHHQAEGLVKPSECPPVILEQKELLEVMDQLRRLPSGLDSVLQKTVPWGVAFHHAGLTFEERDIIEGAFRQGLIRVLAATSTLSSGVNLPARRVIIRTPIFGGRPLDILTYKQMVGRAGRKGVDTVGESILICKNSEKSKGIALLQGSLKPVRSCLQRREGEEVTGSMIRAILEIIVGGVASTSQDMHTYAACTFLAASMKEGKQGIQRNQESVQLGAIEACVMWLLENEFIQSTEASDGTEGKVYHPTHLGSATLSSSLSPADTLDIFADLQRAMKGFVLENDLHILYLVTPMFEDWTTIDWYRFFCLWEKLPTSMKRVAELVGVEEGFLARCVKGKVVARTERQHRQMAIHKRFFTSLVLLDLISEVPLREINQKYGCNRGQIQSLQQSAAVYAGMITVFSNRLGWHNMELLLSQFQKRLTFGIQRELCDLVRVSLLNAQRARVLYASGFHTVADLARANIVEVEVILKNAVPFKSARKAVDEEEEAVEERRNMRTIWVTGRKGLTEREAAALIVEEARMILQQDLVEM

The target in the experiment is Pol Theta (1-894) (Homo sapiens (Human), UniProt O75417). Nature of the experiment: Biochemical Pol Theta (1-894) ATPase IC50 assay (ADP-Glo, ssDNA substrate). As to conditions: ADP-Glo assay with ssDNA substrate, room temperature. The procedure:
Baculovirus Expression of Human POL theta (1-894)
Human POL Theta (1-894)-His-pFastBac1 baculovirus samples were generated using the Bac-to-Bac baculovirus expression system (Invitrogen) according to the manufacturer's protocol. […] Baculovirus amplification was achieved using infected SF9 cells at 1:2000 virus/cells ratios, and grown for 96 hours at 27° C. post-transfection. The expression scaled up for each protein was carried out in the flask 3 L from CORNING. 4 L of 3×10^6 cells/mL Sf9 cells (Expression System, Invitrogen) grown in SF900TM II SFM insect medium (Expression System) were infected with virus stock at 1:200 virus/cell ratios, and grown for 48 hours at 27° C. post-transfection. The infected cell culture was harvested by centrifugation at 6000 rpm for 15 min 4° C. in a SORVALL LYNX6000 centrifuge. The cell pellets were stored at −80° C.
The human POL Theta (1-894)-His produced as described above, were purified from Sf9 baculovirus-infected insect cell paste. The cells were lysed using sonication method, and the lysates were clarified by centrifugation.
Enzymatic reactions of Pol Theta (1-894) were performed using ADP-Glo assay with ssDNA substrate. Pol Theta (1-894) was expressed in baculovirus expression system. The inhibition activities testing for the compound disclosed herein were carried out at room temperature in assay buffer containing 40 mM Tris pH 7.5, 20 mM MgCl2, 1 mM DTT, 0.01% BSA and 0.05% Tween-20. Compounds in DMSO were dispensed into wells of a black 384 well plate (Corning 4514) using D300e digital dispenser (Tecan). The ranges of compounds final concentration were 2.62 nM˜10000 nM. 3 μL 2× enzyme solution containing 12.5 nM enzyme was added to wells. […] After 1 hour reaction, 5 μL ADP-Glo reagent (Promga V9102) was added and incubated for 40 minutes. 10 μL Kinase Detection reagent was added and incubated for 40 minutes. Luminescence was measured on a microplate reader (PHERAstar FSX, BMG labtech). The IC50 values were calculated based on inhibition of enzyme activity in the presence of increasing concentrations of compounds.
(ADP-Glo first removes unused ATP, then detects ADP through luciferase.)
Consider `COc1ccc(C#N)cc1-c1cc(C)ncc1C(=O)Nc1nc2ccc(-c3ccc(N4CCOCC4)cc3)nc2s1` [Example 59, 4-(5-cyano-2-methoxyphenyl)-6-methyl-N-(5-(4-morpholinophenyl)thiazolo[5,4-b]pyridin-2-yl)nicotinamide], for which the IC50 (usually the concentration at which inhibition is half-maximal) came to 98 nM.
To `COc1ccc(C#N)cc1-c1cc(C)ncc1C(=O)Nc1nc2ccc(N3CCOCC3)nc2s1` [Example 60, 4-(5-cyano-2-methoxyphenyl)-6-methyl-N-(5-morpholinothiazolo[5,4-b]pyridin-2-yl)nicotinamide] belongs 361 nM.
The value for `Cc1cc(-c2cccc3[nH]ncc23)c(C(=O)Nc2nc3ccc(-c4ccc(C#N)cc4)nc3s2)cn1` [Example 61, N-(5-(4-cyanophenyl)thiazolo[5,4-b]pyridin-2-yl)-4-(1H-indazol-4-yl)-6-methylnicotinamide] was 121 nM.
To `COc1ccccc1-c1cnncc1C(=O)Nc1nc2ccc(CCc3ccc(Cl)cc3)nc2s1` [Example 62, N-(5-(4-chlorophenethyl)thiazolo[5,4-b]pyridin-2-yl)-5-(2-methoxyphenyl)pyridazine-4-carboxamide] belongs 24 nM.
In turn, `COc1ccccc1-c1cnncc1C(=O)Nc1nc2ccc(C#Cc3ccc(Cl)cc3)nc2s1` [Example 63, N-(5-((4-chlorophenyl)ethynyl)thiazolo[5,4-b]pyridin-2-yl)-5-(2-methoxyphenyl)pyridazine-4-carboxamide] displayed an IC50 of 31 nM.
Regarding `Cc1cc(-c2ccccc2CO)c(C(=O)Nc2nc3ccc(-c4ccc(C#N)cc4)nc3s2)cn1` [Example 64, N-(5-(4-cyanophenyl)thiazolo[5,4-b]pyridin-2-yl)-4-(2-(hydroxymethyl)phenyl)-6-methylnicotinamide], the half-inhibitory concentration (IC50) is 186 nM.
The value for `COc1ccc(C#N)cc1-c1cc(C)ncc1C(=O)Nc1nc2ccc(OCCN3CCOCC3)nc2s1` [Example 65, 4-(5-cyano-2-methoxyphenyl)-6-methyl-N-(5-(2-morpholinoethoxy)thiazolo[5,4-b]pyridin-2-yl)nicotinamide] was 224 nM; that for `COCc1ccc(OC)c(-c2cc(C)ncc2C(=O)Nc2nc3ccc(-c4ccc(C#N)cc4)nc3s2)c1` [Example 66, N-(5-(4-cyanophenyl)thiazolo[5,4-b]pyridin-2-yl)-4-(2-methoxy-5-(methoxymethyl)phenyl)-6-methylnicotinamide] was 99 nM; that for `COc1ccc(C#N)cc1-c1cc(C)ncc1C(=O)Nc1nc2ccc(C3CCOCC3)nc2s1` [Example 67, 4-(5-cyano-2-methoxyphenyl)-6-methyl-N-(5-(tetrahydro-2H-pyran-4-yl)thiazolo[5,4-b]pyridin-2-yl)nicotinamide] was 64 nM.
The value for `Cc1cc(-c2cccc3c2OCO3)c(C(=O)Nc2nc3ccc(-c4ccc(C#N)cc4)nc3s2)cn1` [Example 68, 4-(benzo[d][1,3]dioxol-4-yl)-N-(5-(4-cyanophenyl)thiazolo[5,4-b]pyridin-2-yl)-6-methylnicotinamide] was 253 nM; that for `COc1ccccc1-c1cnncc1C(=O)Nc1nc2ccc(Cc3ccc(Cl)cc3)nc2s1` [Example 69, N-(5-(4-chlorobenzyl)thiazolo[5,4-b]pyridin-2-yl)-5-(2-methoxyphenyl)pyridazine-4-carboxamide] was 45 nM; that for `Cc1cc(-c2cccc3c2OCC(=O)N3)c(C(=O)Nc2nc3ccc(-c4ccc(C#N)cc4)nc3s2)cn1` [Example 70, N-(5-(4-cyanophenyl)thiazolo[5,4-b]pyridin-2-yl)-6-methyl-4-(3-oxo-3,4-dihydro-2H-benzo[b][1,4]oxazin-8-yl)nicotinamide] was 193 nM.
The value for `COc1ccccc1-c1cnncc1C(=O)Nc1nc2ccc(-c3ccc(NC(=O)C4CC4)cc3)nc2s1` [Example 71, N-(5-(4-(cyclopropanecarboxamido)phenyl)thiazolo[5,4-b]pyridin-2-yl)-5-(2-methoxyphenyl)pyridazine-4-carboxamide] was 83 nM; that for `COc1ccccc1-c1cc(C)ncc1C(=O)Nc1nc2ccc(-c3ccc(C#N)cc3)nc2s1` [Example 72, N-(5-(4-cyanophenyl)thiazolo[5,4-b]pyridin-2-yl)-4-(2-methoxyphenyl)-6-methylnicotinamide] was 59 nM; that for `CCNC(=O)c1ccc(-c2ccc3nc(NC(=O)c4cnc(C)cc4-c4cc(C#N)ccc4OC)sc3n2)cc1` [Example 73, 4-(5-cyano-2-methoxyphenyl)-N-(5-(4-(ethylcarbamoyl)phenyl)thiazolo[5,4-b]pyridin-2-yl)-6-methylnicotinamide] was 15 nM.
Compound `COc1ccc(C#N)cc1-c1cc(C)ncc1C(=O)Nc1nc2ccc(-c3ccc(C(=O)NC(C)C)cc3)nc2s1` [Example 74, 4-(5-cyano-2-methoxyphenyl)-N-(5-(4-(isopropylcarbamoyl)phenyl)thiazolo[5,4-b]pyridin-2-yl)-6-methylnicotinamide] showed a half-maximal inhibitory concentration (IC50) of 73 nM.
The value for `COc1c(F)cccc1-c1cc(C)ncc1C(=O)Nc1nc2ccc(-c3ccc(C#N)cc3)nc2s1` [Example 75, N-(5-(4-cyanophenyl)thiazolo[5,4-b]pyridin-2-yl)-4-(3-fluoro-2-methoxyphenyl)-6-methylnicotinamide] was 32 nM; that for `COc1ccc([N+](=O)[O-])cc1-c1cc(C)ncc1C(=O)Nc1nc2ccc(-c3ccc(C#N)cc3)nc2s1` [Example 76, N-(5-(4-cyanophenyl)thiazolo[5,4-b]pyridin-2-yl)-4-(2-methoxy-5-nitrophenyl)-6-methylnicotinamide] was 5.8 nM.
The value for `COCCOc1ccc2nc(NC(=O)c3cnc(C)cc3-c3cc(C#N)ccc3OC)sc2n1` [Example 77, 4-(5-cyano-2-methoxyphenyl)-N-(5-(2-methoxyethoxy)thiazolo[5,4-b]pyridin-2-yl)-6-methylnicotinamide] was 50 nM.
The value for `COc1ccc(C#N)cc1-c1cc(C)ncc1C(=O)Nc1nc2ccc(-c3ccc(N4CCCC4=O)c(C)c3)nc2s1` [Example 78, 4-(5-cyano-2-methoxyphenyl)-6-methyl-N-(5-(3-methyl-4-(2-oxopyrrolidin-1-yl)phenyl)thiazolo[5,4-b]pyridin-2-yl)nicotinamide] was 7.5 nM; that for `COCc1ccc(-c2ccc3nc(NC(=O)c4cnc(C)cc4-c4cc(C#N)ccc4OC)sc3n2)cc1` [Example 79, 4-(5-cyano-2-methoxyphenyl)-N-(5-(4-(methoxymethyl)phenyl)thiazolo[5,4-b]pyridin-2-yl)-6-methylnicotinamide] was 41 nM; that for `COc1ccc(C#N)cc1-c1cc(C)ncc1C(=O)Nc1nc2ccc(-c3ccc(C(C)(C)O)cc3)nc2s1` [Example 80, 4-(5-cyano-2-methoxyphenyl)-N-(5-(4-(2-hydroxypropan-2-yl)phenyl)thiazolo[5,4-b]pyridin-2-yl)-6-methylnicotinamide] was 26 nM.
`COc1ccccc1-c1cnncc1C(=O)Nc1nc2ccc(-c3ccc(S(C)(=O)=O)cc3)nc2s1` [Example 81, 5-(2-methoxyphenyl)-N-(5-(4-(methylsulfonyl)phenyl)thiazolo[5,4-b]pyridin-2-yl)pyridazine-4-carboxamide]: the concentration for half-maximal inhibition (IC50) was determined as 7.7 nM.
`COc1c(C#N)cccc1-c1cc(C)ncc1C(=O)Nc1nc2ccc(-c3ccc(C#N)cc3)nc2s1` [Example 82, 4-(3-cyano-2-methoxyphenyl)-N-(5-(4-cyanophenyl)thiazolo[5,4-b]pyridin-2-yl)-6-methylnicotinamide] showed a 50% inhibitory concentration (IC50) of 272 nM.
The value for `COc1ccccc1-c1cnncc1C(=O)Nc1nc2ccc(-c3ccc(C#N)cc3)nc2s1` [Example 83, N-(5-(4-cyanophenyl)thiazolo[5,4-b]pyridin-2-yl)-5-(2-methoxyphenyl)pyridazine-4-carboxamide] was 6.2 nM; that for `COc1ccc(C#N)cc1-c1cc(C)ncc1C(=O)Nc1nc2ccc(-c3ccc(C(=O)N4CCOCC4)cc3)nc2s1` [Example 84, 4-(5-cyano-2-methoxyphenyl)-6-methyl-N-(5-(4-(morpholine-4-carbonyl)phenyl)thiazolo[5,4-b]pyridin-2-yl)nicotinamide] was 49 nM; that for `COc1ccc(C#N)cc1-c1cc(C)ncc1C(=O)Nc1nc2ccc(-c3ccc(C(=O)N4CCCC4)cc3)nc2s1` [Example 85, 4-(5-cyano-2-methoxyphenyl)-6-methyl-N-(5-(4-(pyrrolidine-1-carbonyl)phenyl)thiazolo[5,4-b]pyridin-2-yl)nicotinamide] was 62 nM.
To `COc1ccc(C#N)cc1-c1cc(C)ncc1C(=O)Nc1nc2ccc(-c3ccc(C(=O)N(C)C)cc3)nc2s1` [Example 86, 4-(5-cyano-2-methoxyphenyl)-N-(5-(4-(dimethylcarbamoyl)phenyl)thiazolo[5,4-b]pyridin-2-yl)-6-methylnicotinamide] belongs 7.4 nM.
